The values below are quoted from earlier work in paper PMC7153166 (Elektrophysiologie, 2018).

pEC50, pIC50: −log10 of the molar value.

Common to all, as to type: cell-based
For one series, the target named is T1, P2X2-Rezeptor (Rattus norvegicus, UniProt P49653).
T1 sequence (P49653 1-472): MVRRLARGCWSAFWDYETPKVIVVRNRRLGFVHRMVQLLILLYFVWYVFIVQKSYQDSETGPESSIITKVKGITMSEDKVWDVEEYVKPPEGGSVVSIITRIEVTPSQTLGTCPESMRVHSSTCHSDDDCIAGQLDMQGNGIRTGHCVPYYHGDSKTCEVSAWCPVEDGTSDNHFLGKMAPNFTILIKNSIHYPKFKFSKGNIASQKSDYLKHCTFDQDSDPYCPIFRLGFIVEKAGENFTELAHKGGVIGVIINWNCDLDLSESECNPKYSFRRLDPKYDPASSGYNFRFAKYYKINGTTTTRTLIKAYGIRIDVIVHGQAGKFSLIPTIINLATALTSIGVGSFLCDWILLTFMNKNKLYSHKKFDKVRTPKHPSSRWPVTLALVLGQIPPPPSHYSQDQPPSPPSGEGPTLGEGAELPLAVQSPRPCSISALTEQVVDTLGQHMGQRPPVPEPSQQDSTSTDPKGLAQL
Description: two-electrode voltage clamp, Xenopus oocytes. The settings on record: agonist.

The next series deals with T2, P2X1-Rezeptor (Rattus norvegicus, UniProt P47824).
T2 sequence (P47824 1-399): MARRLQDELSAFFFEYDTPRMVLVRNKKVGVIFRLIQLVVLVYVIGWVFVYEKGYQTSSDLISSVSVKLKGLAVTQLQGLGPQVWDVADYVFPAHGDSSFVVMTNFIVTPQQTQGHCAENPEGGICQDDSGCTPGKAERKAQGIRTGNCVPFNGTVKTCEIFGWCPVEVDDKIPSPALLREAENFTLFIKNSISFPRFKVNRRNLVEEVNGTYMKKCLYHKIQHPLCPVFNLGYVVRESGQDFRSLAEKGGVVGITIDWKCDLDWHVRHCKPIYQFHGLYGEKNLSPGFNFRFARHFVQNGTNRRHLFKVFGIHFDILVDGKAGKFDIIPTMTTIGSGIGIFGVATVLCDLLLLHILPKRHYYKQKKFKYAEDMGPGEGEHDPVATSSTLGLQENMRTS
Description: two-electrode voltage clamp, Xenopus oocytes.

A further series concerns the target 3a-Protein (Severe acute respiratory syndrome-related coronavirus, UniProt P59632).

Sequence of 3a-Protein (P59632 whole entry, looked up): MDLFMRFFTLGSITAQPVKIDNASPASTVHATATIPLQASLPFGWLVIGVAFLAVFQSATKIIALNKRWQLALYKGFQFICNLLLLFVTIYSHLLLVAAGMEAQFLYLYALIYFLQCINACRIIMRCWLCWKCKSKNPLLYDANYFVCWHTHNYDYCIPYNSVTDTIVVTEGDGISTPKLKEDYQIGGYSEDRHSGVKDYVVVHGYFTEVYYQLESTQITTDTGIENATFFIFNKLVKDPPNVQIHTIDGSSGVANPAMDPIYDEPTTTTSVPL

On to `Nc1ncnc2c1ncn2[C@@H]1O[C@H](COP(=O)(O)OP(=O)(O)OP(=O)(O)O)[C@@H](O)[C@H]1O` [ATP], for which the figures for the pEC50 at P2X2-Rezeptor and on P2X1-Rezeptor were around 4.52 and 6.22, respectively.

For `Cc1cc(O)c2c(c1)C(=O)c1cc(O)cc(O)c1C2=O` [Emodin, 1,3,8-Trihydroxcy-6-methylanthracen-9,10-dion], the pIC50 at 3a-Protein is 4.70.

Take `O=c1c(O[C@@H]2O[C@@H](CO)[C@H](O)[C@H]2O)c(-c2ccc(O)cc2)oc2cc(O)cc(O)c12` [Juglanin]: on 3a-Protein, the pIC50 was around 5.70.
